Where “and” joins values, the source holds several entries; their conditions need not be identical. Equal values may be shown once. Read-outs that look alike come from different tables or passages of the source.
What was measured:
Wistar rats [1] = assay type: in vivo
Experimental: (§1) Rats used for this experiment were fasted for 8 h and were organized into two groups of three rats for each dose and each flavonoid. Likewise, the control group received isotonic 0.9% sodium chloride solution (dose: 5 mL/kg). All rats were closely observed for toxic symptoms and behavioral changes (sedation, hyperactivity, writhing, pruritus, feeding and drinking habits, general morphological changes, and bite legs) for 30 min and periodically 24 h post-administration. Animals were observed daily (14 days) and mortality rate recorded. A LD50 was estimated according to criteria of OECD guide 423.
The rats’ body weight in each group was determined and recorded before the treatment initiation and after 14 days. Changes in the body weight at the end of the 14 days were calculated. Once observation time was completed and to detect any adverse effect, blood samples were collected by cardiac puncture after the previous fasting of 8 h. For this purpose, rats were anesthetized by intraperitoneally 50 mg/kg sodium pentobarbital. The liver was carefully extracted, rinsed in normal saline, drained on blotting paper, and carefully examined for tissue lesions. In addition, organ weight was determined.
Rat blood samples were analyzed by a hematology auto-analyzer system (Sysmex XS-1000i®, SYSMEX®, Oak Ridge, TN, USA). The parameters quantified on this stage were: blood count-packed cell volume (PCV), red blood cell (RBC) count, hemoglobin (Hb), platelet count, white blood cell (WBC) count, mean cell hemoglobin concentration (MCHC), mean red cell volume (MCV), mean cell hemoglobin (MCH), prothrombin time (PT), and activated partial thromboplastin time (aPTT).

Wistar rats [2] = details: rat, in vivo, po
VERO cells = experiment: MTT-based cytotoxicity assay in VERO cells; assay type: cell-based, green Monkey; details: 48 h, 125 to 750 µg/mL (QRT effect at 250–750 µg/mL)
Experimental: (§2) VERO and MDCK cell lines were acquired from American Type Culture Collection (ATCC, Manassas, VA, USA). […] In vitro cytotoxicity assay was performed on Madin-Darby Canine Kidney Epithelial Cells (MDCK) and green Monkey Kidney Cells (VERO) by MTT-based assay. Briefly, cells were seeded in 96-well plates at a density of 2.5 × 10^3 cells/well. […] The absorbance was measured after 45 min using a microplate reader (Multiskan Asent®) at a wavelength of 550 nm. The criteria for categorizing cytotoxicity against MDCK and VERO cells are based on the U.S. National Cancer Institute (NCI). The criteria comprise as follow: […] All results were expressed as mean ± standard error. The results from the in vivo and in vitro experiments were analyzed using software Origin® 8.0. […] The IC50 (half inhibitory concentration) values were calculated in Origin software®, (Northampton, MA, USA) and one-way ANOVA analysis was compared with cisplatin as the control.

[3] = MTT-based cytotoxicity assay in VERO cells; assay type: cell-based, green Monkey; details: green monkey, MTT
Experimental: as §2

Swiss-albino mice = details: cited from earlier work
MDCK cells = experiment: MTT-based cytotoxicity assay in MDCK cells; assay type: cell-based, Canine; details: 48 h, 125 to 750 µg/mL (QRT effect at 250 and 500 µg/mL)
Experimental: as §2

Wistar rats [4] = experiment: Acute oral toxicity, OECD Test No. 423 (mortality, signs, LD50, body weight); assay type: in vivo; details: oral 300 and 2000 mg/kg, test days 2, 3, 9 and 10
Experimental: Female Wistar rats (250 g b.w.) were used. These animals were obtained from Bioterium from División de Ciencias de la Salud at the Universidad de Quintana Roo. They were maintained under standard environmental conditions (22 ± 3 °C, 12 h/12 h light/dark cycle), and free access to standard rodent diet and water ad libitum. All animal procedures were conducted under our Federal Regulations for Animal Experimentation and Care and were approved by the Institutional Animal Care and Use Committee of the “Universidad Juárez Autónoma de Tabasco” university (Code:2017-001, Approved: October 2017). Rats were acclimatized for 1 week before the start of experimental procedures.
The half lethal dose (LD50) was estimated using the fixed-dose method described in OECD Guidelines for the Testing of Chemicals (Test No. 423: Acute Oral Toxicity-Class Method; OECD, 2001). […] This method allowed a step-by-step assay according to the chosen dose to begin the experiment. Subsequently, depending on the presence or absence of mortality, the decision to continue within the next step is taken, so fewer experimental animals should be used.
as §1
The rats’ body weight in each group was determined and recorded before the treatment initiation and after 14 days. Changes in the body weight at the end of the 14 days were calculated. Once observation time was completed and to detect any adverse effect, blood samples were collected by cardiac puncture after the previous fasting of 8 h. […] In addition, organ weight was determined.

## O=c1c(O)c(-c2ccc(O)c(O)c2)oc2cc(O)cc(O)c12 [QRT, Quercetin]
Wistar rats [1]
  MCV: 56.45 ± 3.05 fL
  PT: 16.20 ± 2.00 s
  Platelets: 759.00±22.00 105/µL
  RBCDW: 17.95±0.45%
Wistar rats [1]; rat, in vivo, po, 50 mg/kg
  APTT: 14.55 ± 0.25 s
  Hb: 14.55 ± 0.65 g/dL
  Hto: 45.50±2.30%
  Leukocytes: 3.65±0.60 103/µL
  MCH: 18.05 ± 0.85 pg
Wistar rats [1]; rat, in vivo, po, 300 mg/kg
  APTT: 15.75 ± 1.45 s
  Erythrocytes: 8.12±0.32 106/µL
  Hb: 14.67 ± 0.45 g/dL
  Hto: 45.73±1.15%
  Leukocytes: 4.21±0.38 103/µL
  MCH: 18.07 ± 0.20 pg
  MCV: 56.37 ± 0.90 fL
  PT: 16.00 ± 2.65 s
  Platelets: 665.00±125.33 105/µL
  RBCDW: 16.80±0.20%
Wistar rats [2]; 50 mg/kg
  ALB (albumin): 3.88 ± 0.04 g/dL
  ALB/GL Ratio: 1.56 ± 0.087
  GL (globulin): 2.50 ± 0.14 g/dL
  GLU (glucose): 119.67 ± 8.74 mg/dL
  IB (indirect bilirubin): 0.036 ± 0.003 mg/dL
  TB (total bilirubin): 0.08 ± 0.006 mg/dL
  TP (total protein): 6.38 ± 0.15 g/dL
Wistar rats [2]; 300 mg/kg
  ALB (albumin): 3.63 ± 0.09 g/dL
  ALB/GL Ratio: 1.39 ± 0.15
  DB (direct bilirubin): 0.016 ± 0.004 mg/dL
  GL (globulin): 2.84 ± 0.16 g/dL
  GLU (glucose): 149.49 ± 5.00 mg/dL
  IB (indirect bilirubin): 0.030 ± 0.006 mg/dL
  TB (total bilirubin): 0.05 ± 0.003 mg/dL
  TP (total protein): 6.48 ± 0.065 g/dL
VERO cells
  percentage viability / growth of cells: produced a decrease in the percentage viability
[3]
  IC50 at 48 h: 465 µM and 141 µg/mL
[3]; abstract, first value of 'respectively'
  IC50 at 48 h: 219 ± 7.22 µM
Swiss-albino mice; 128 or 450 mg/kg orally for 14 days
  alkaline phosphatase (ALP): increased
Swiss-albino mice; higher dose, orally for 14 days
  AST: declined
Swiss-albino mice; only at 128 mg/kg, orally for 14 days
  bilirubin: also increased
MDCK cells
  percentage viability / growth of cells: caused significant differences in the rate of cell viability

## O=C1C[C@@H](c2ccc(O)cc2)Oc2cc(O)cc(O)c21 [NARGE, naringenin]
Wistar rats [1]; rat, in vivo, po, 300 mg/kg
  Erythrocytes: 6.98±1.18 106/µL
  Hb: 12.00 ± 1.81 g/dL
  Hto: 36.76±5.31%
  Leukocytes: 5.31±0.74 103/µL
  MCH: 17.40 ± 0.39 pg
  MCHC: 32.53 ± 0.49 g/dL
  MCV: 53.46 ± 1.87 fL
  Platelets: 726.00±12.26 105/µL
  RBCDW: 17.80±1.89%
Wistar rats [1]; rat, in vivo, po, 2000 mg/kg
  APTT: 26.26 ± 1.85 s
  Erythrocytes: 8.03±0.29 106/µL
  Hb: 14.23 ± 0.22 g/dL
  Hto: 44.63±0.44%
  Leukocytes: 5.57±1.20 103/µL
  MCH: 18.05 ± 0.39 pg
  MCHC: 31.25 ± 0.18 g/dL
  MCV: 57.85 ± 1.59 fL
  PT: 15.46 ± 0.71 s
  RBCDW: 18.93±0.14%
Wistar rats [2]; 300 mg/kg
  ALB (albumin): 3.86 ± 0.10 g/dL
  ALB/GL Ratio: 1.26 ± 0.08
  ALT: 39.19 ± 0.77 IU/L
  AST: 156.06 ± 9.33 IU/L
  DB (direct bilirubin): 0.013 ± 0.007 mg/dL
  GL (globulin): 3.11 ± 0.25 g/dL
  GLU (glucose): 145.29 ± 5.47 mg/dL
  IB (indirect bilirubin): 0.051 ± 0.007 mg/dL
  TB (total bilirubin): 0.064 ± 0.005 mg/dL
  TP (total protein): 6.97 ± 0.30 g/dL
Wistar rats [2]; 2000 mg/kg
  ALB (albumin): 4.74 ± 0.16 g/dL
  ALB/GL Ratio: 1.56 ± 0.14
  ALT: 57.68 ± 10.97 IU/L
  AST: 149.37 ± 7.16 IU/L
  DB (direct bilirubin): 0.020 ± 0.001 mg/dL
  GL (globulin): 3.08 ± 0.17 g/dL
  GLU (glucose): 175.56 ± 6.80 mg/dL
  IB (indirect bilirubin): 0.045 ± 0.060 mg/dL
  TB (total bilirubin): 0.065 ± 0.007 mg/dL
  TP (total protein): 7.82 ± 0.07 g/dL
VERO cells
  percentage viability / growth of cells: did not change the percentage of growth
Wistar rats [4]
  rats' weight vs control: modifies rats’ weight
MDCK cells
  percentage viability / growth of cells: did not change the percentage of growth

— PMC7766697, “Toxicological Screening of Four Bioactive Citroflavonoids: In Vitro, In Vivo, and In Silico Approaches” (Molecules, 2020)
